The values that follow come from patent US4576948A, “Composition and method for inhibiting terminal deoxyribonucleotidyl transferase activity” (Trustees Boston University, priority 1983, dated 1986).

Assay [1] concerns the target T1, terminal deoxyribonucleotidyl transferase (TdT) (Bos taurus, UniProt P06526).
T1 construct: classical preparation may be proteolysed two-subunit form of one gene product
Description: TdT assay (3H-dGMP incorporation) with purified TdT. It counts as biochemical, calf. The settings on record: for CMP 3H--dGMP inc.: 200 μM compound, 35° C., 1 hour, 10 μM 3H-dGTP, DMSO only control 12,131; for CMP Incorporated, TdT: additive at 400 M (so in the source), DMSO control 12,131; for TdT inhibition (in words): concentration not given. The protocol: (§1) TdT was purified from normal calf thymus gland by a procedure utilizing the successive steps of homogenization, ion exchange […] and gel filtration. Bollum et al, "The Enzymes", (R. D. Boxer Ed.) pp. 145-171, Academic Press, New York. TdT was assayed at 35° C. for 1 hour in 0.1 ml total volume of a reaction mixture comprising 0.05 M Tris-HCl (pH 8.3), 2 mM […], 0.6 mM MnCl2, 10 μg bovine serum albumin (BSA), 1 μg oligodA14-18, 10 μM ^3 H-dGTP (d-triphosphate) and chelex distilled H2 O. When used, the 6-anilinouracil derivates were added at various concentrations in 5 μl DMSO per 100 μl reaction mix. Other DNA polymerases (α, β, and γ) were assayed using standard assay conditions, as previously described by Wright, Baril and Brown, Nucleic Acids Research, Vol. 8, No. 1, pp. 99-109, 1980.
Reaction conditions used were as noted above.

Assay [2] deals with HeLa cells. The settings on record: background statement, 'in vivo'; cited from earlier work.
In assay [3] the target is T2, HeLa cell polymerase α (Homo sapiens, UniProt P09884). The note with it: background statement; no other mammalian cell DNA polymerase inhibited; cited from earlier work.
T2 sequence (P09884 whole entry): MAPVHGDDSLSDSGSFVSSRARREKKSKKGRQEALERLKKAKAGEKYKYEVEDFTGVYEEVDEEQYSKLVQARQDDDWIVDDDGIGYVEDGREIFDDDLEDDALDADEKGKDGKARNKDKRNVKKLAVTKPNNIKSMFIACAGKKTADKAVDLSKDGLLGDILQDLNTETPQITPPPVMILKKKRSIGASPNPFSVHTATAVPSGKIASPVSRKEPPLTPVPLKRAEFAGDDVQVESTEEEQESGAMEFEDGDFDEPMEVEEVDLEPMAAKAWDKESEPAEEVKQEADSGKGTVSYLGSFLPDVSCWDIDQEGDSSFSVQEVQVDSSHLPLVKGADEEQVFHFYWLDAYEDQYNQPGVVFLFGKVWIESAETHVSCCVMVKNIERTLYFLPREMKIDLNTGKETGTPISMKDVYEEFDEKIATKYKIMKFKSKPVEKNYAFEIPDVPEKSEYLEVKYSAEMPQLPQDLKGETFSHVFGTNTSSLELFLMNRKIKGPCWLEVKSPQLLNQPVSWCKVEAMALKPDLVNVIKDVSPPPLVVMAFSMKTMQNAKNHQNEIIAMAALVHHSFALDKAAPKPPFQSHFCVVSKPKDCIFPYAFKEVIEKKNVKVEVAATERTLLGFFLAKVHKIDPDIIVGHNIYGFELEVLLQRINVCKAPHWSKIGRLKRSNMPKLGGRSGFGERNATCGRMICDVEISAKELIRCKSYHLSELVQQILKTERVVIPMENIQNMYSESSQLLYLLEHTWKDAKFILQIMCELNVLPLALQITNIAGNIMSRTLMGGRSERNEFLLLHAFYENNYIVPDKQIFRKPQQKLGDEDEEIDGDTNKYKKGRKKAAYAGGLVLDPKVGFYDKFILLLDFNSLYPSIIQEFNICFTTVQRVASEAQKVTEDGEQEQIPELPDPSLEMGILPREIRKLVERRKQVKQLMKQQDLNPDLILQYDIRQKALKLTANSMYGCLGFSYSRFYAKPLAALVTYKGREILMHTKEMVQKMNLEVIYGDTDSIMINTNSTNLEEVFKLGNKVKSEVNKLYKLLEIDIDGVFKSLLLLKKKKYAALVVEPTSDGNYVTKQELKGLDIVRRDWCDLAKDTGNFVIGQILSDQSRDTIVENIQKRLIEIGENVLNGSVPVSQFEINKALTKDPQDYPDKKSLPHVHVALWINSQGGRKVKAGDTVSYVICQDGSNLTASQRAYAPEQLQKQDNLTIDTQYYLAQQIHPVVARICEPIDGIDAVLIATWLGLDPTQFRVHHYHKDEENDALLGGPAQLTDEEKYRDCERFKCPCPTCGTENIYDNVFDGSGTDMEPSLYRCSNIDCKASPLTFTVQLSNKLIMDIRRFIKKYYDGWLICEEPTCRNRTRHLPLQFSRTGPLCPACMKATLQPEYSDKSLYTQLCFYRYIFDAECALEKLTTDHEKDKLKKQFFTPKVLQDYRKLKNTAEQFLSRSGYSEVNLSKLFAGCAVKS
T2 sequence (Q14181 whole entry partner): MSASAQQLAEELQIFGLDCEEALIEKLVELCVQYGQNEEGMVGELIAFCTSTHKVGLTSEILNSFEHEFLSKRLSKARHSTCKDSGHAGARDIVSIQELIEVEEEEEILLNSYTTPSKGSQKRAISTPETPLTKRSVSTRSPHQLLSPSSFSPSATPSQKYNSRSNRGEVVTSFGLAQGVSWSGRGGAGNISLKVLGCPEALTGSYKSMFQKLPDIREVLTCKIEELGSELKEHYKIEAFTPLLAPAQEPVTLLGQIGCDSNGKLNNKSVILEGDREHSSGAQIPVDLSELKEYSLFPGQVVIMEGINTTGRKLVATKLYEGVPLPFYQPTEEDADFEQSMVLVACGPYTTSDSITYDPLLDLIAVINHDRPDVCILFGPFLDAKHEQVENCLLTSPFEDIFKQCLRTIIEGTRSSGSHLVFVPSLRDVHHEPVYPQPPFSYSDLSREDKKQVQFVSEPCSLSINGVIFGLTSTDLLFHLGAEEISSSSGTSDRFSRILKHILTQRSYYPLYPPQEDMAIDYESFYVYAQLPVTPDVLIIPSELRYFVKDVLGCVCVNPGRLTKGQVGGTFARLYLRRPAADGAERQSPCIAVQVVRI
T2 sequence (P49642 whole entry partner): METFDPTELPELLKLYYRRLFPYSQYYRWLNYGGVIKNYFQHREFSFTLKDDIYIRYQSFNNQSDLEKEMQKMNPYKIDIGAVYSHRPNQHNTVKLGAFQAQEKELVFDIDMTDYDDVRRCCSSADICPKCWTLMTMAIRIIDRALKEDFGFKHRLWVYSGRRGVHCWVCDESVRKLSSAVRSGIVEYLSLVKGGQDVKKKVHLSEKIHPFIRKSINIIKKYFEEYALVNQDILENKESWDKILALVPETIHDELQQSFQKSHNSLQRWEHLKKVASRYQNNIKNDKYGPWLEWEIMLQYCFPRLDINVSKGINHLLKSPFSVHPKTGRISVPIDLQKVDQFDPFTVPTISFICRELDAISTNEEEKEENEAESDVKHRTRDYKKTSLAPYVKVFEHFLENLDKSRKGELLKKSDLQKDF
T2 sequence (P49643 whole entry partner): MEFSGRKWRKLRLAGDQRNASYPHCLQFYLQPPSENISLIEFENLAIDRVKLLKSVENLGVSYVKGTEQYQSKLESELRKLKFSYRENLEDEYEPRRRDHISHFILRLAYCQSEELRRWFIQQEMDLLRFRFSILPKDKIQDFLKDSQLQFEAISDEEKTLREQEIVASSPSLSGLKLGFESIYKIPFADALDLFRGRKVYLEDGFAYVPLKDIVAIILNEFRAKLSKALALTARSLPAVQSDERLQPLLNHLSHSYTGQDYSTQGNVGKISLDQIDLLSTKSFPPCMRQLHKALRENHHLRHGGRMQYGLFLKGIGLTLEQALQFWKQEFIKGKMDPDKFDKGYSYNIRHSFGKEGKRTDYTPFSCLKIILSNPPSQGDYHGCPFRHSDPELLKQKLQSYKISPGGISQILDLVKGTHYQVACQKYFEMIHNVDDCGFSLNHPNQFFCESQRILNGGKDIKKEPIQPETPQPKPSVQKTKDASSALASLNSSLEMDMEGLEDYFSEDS
Another assay addresses T3, HeLa cell polymerase γ (Homo sapiens, UniProt P54098).
T3 sequence (P54098 1-1239): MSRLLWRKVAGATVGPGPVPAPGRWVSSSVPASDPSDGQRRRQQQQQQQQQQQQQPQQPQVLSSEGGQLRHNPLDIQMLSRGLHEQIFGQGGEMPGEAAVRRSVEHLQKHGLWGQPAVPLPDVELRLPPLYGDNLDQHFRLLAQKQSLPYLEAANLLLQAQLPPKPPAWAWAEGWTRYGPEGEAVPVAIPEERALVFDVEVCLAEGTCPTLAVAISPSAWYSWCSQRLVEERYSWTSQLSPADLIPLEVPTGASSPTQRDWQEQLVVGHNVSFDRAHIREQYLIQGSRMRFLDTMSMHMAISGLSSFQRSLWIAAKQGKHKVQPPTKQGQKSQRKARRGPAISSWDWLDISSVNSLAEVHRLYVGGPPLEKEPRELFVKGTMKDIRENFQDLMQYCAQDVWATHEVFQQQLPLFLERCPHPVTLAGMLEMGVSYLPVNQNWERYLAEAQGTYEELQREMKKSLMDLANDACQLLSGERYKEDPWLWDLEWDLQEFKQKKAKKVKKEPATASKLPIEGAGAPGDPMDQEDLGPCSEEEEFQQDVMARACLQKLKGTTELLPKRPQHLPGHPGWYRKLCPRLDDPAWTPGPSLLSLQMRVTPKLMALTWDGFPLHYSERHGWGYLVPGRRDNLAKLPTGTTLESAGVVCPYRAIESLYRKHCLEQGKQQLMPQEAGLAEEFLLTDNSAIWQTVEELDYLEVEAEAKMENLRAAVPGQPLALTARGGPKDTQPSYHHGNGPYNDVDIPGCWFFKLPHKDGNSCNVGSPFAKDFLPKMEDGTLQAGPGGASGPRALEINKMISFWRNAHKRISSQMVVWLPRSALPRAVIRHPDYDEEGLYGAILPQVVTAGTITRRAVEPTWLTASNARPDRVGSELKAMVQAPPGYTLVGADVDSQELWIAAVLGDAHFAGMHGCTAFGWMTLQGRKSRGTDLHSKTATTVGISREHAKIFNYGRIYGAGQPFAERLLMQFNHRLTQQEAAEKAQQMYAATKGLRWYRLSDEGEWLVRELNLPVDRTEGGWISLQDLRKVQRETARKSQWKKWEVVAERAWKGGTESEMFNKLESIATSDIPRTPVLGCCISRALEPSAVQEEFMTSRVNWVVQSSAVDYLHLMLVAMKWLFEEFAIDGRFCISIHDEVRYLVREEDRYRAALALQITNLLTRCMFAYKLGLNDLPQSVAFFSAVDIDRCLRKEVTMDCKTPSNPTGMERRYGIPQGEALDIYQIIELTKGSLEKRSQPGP
T3 sequence (Q9UHN1 2-485 partner): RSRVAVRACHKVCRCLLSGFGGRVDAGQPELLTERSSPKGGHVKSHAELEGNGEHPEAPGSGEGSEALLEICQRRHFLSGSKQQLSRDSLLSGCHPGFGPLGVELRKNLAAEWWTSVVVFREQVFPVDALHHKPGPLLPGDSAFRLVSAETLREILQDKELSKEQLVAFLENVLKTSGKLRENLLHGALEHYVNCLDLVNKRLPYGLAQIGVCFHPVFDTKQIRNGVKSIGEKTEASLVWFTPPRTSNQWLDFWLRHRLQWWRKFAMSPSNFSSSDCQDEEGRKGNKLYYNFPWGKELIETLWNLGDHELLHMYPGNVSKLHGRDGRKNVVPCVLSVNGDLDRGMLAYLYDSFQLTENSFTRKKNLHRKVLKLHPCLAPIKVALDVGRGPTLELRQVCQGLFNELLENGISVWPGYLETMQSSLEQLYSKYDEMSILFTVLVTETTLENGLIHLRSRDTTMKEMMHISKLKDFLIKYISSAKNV
As to the kind of experiment: DNA polymerase γ assay, standard assay conditions. It counts as biochemical. The settings on record: for effect on HeLa cell polymerase γ (in words): 400 μM; for CMP Incorporated, Pol γ: additive at 400 M (so in the source), DMSO control 7,490. On the procedure:
as §1

The target in assay [4] is T2, HeLa cell polymerase α. As to the kind of experiment: DNA polymerase α assay, standard assay conditions. It is filed as biochemical. The settings on record: for effect on HeLa cell polymerase α (in words): 400 μM; for CMP Incorporated, Pol α: additive at 400 M (so in the source), DMSO control 15,040. On the procedure: as §1
The target of another assay is HeLa cell polymerase β (Homo sapiens, UniProt P06746). Description: DNA polymerase β assay, standard assay conditions. It counts as biochemical. The note with it: for effect on HeLa cell polymerase β (in words): 400 μM; for CMP Incorporated, Pol β: additive at 400 M (so in the source), DMSO control 5,221. On the procedure: as §1
The next assay relates to L1210 cells. As to the kind of experiment: Inhibition of cell proliferation, L1210 (TdT-negative). It counts as cell-based, Mouse. The note with it: even at 400 μM; 1% DMSO; viable cells at 72 hours. The protocol:
(§2) HeLa cells, El-4cells, L1210 cells were grown in suspended cell culture under standard conditions in RPMI medium, at 37° C. in moist air containing 5% CO2. All inhibitions were performed using a final concentration of 1% DMSO as inhibitor solvent. Control cells were therefore grown in the presence of 1% DMSO.
(§3) Compound GW18C (6-(p-aminoanilo) uracil) was prepared as a 40 mM stock solution in pre-heated DMSO. This stock solution was progressively diluted to give a range of operating inhibitory concentrations between 1×10^-9 M and […]. Inhibition was measured by comparing the number of viable cells in control cultures at the end of 72 hours with the number in cultures exposed to inhibitor.

The subject of another assay is EL-4. Description: Inhibition of cell proliferation, EL-4 (TdT-positive). It counts as cell-based, Mouse. On the procedure:
as §2, §3

In assay [5] the test system is HeLa cells. As to the kind of experiment: Inhibition of cell proliferation, HeLa (TdT-negative). The note with it: even at 400 μM; 1% DMSO; viable cells at 72 hours. It counts as cell-based, Human. The protocol:
as §2, §3

T1 sequence (P06526 whole entry): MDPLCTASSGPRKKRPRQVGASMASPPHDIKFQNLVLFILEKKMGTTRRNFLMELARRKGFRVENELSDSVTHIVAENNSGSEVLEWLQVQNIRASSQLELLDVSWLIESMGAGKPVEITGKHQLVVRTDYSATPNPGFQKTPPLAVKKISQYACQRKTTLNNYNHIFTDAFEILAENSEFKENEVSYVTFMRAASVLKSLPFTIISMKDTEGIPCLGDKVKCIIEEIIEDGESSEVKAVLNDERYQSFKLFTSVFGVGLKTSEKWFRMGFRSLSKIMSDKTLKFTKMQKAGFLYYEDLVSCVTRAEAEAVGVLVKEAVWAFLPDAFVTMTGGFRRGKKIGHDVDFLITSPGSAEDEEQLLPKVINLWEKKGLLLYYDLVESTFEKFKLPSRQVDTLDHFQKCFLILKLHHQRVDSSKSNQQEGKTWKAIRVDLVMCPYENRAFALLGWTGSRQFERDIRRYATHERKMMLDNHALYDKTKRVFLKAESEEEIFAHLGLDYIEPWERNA

As to “6-(p-methoxybenzyl)-6-aminouracil [GW-33E]”, the “CMP 3H--dGMP inc.” value in assay [1] is listed as 11,988 CMP.

On to `CCCCc1ccc(Nc2cc(=O)[nH]c(=O)[nH]2)cc1` [6-(p-n-butylanilino) uracil], for which, in the assay on HeLa cells [2], the “inhibition of HeLa cell division and DNA synthesis (in words)” value was “selective inhibitor”. Besides, the “inhibition of DNA polymerase alpha of HeLa cells (in words)” value at HeLa cell polymerase α [3] was “specific inhibitor”.

With `O=c1cc(NCc2ccccc2)[nH]c(=O)[nH]1` [GW-7B, 6-(benzylamino)uracil], the “CMP 3H--dGMP inc.” value in assay [1] was 12,780 CMP.

Regarding `O=c1cc(NCCc2ccccc2)[nH]c(=O)[nH]1` [GW-7C, 6-(phenethylamino)uracil], the “CMP 3H--dGMP inc.” value in [1] is listed as 12,391 CMP.

Consider `O=c1cc(Nc2ccccc2)[nH]c(=O)[nH]1` [GW-9E, 6-anilinouracil], for which the “CMP 3H--dGMP inc.” value in assay [1] is 10,350 CMP.

For the compound `CCCCc1ccc(Nc2cc(=O)[nH]c(=O)[nH]2)cc1` [GW-11D, 6-(p-butylanilino)uracil], the “CMP 3H--dGMP inc.” value in assay [1] is recorded as 10,925 CMP.

`CC(=O)Nc1ccc(CNc2cc(=O)[nH]c(=O)[nH]2)cc1` [GW-16C, 6-(p-acetamidobenzylamino)uracil]: in [1], the “CMP 3H--dGMP inc.” value is 14,160 CMP.

On to `O=c1cc(Nc2ccc3c(c2)CCC3)[nH]c(=O)[nH]1` [GW-17B, 6-(3',4'-trimethyleneanilino)uracil], for which the “CMP 3H--dGMP inc.” value in assay [1] is given as 12,383 CMP.

Consider `COc1ccc(Nc2cc(=O)[nH]c(=O)[nH]2)cc1` [GW-17E, 6-(p-methoxyanilo)uracil], for which, on HeLa cell polymerase γ, the “effect on HeLa cell polymerase γ (in words)” value is reported as “not effected” and the “CMP Incorporated, Pol γ” value is recorded as 7,223 CMP. Further, at HeLa cell polymerase α [4], the “effect on HeLa cell polymerase α (in words)” value is “not effected” and the “CMP Incorporated, Pol α” value is on record as 15,217 CMP. Further, in assay [1], the “CMP 3H--dGMP inc.” value is on record as 6,980 CMP and the “CMP Incorporated, TdT” value is 4,964 CMP. Also, at HeLa cell polymerase β, the “effect on HeLa cell polymerase β (in words)” value is given as “not effected” and the “CMP Incorporated, Pol β” value is listed as 5,492 cpm.

For `O=c1cc(NC2CCCCC2)[nH]c(=O)[nH]1` [GW-18B, 6-(cyclohexylamino)uracil], in [1], the “CMP 3H--dGMP inc.” value is 13,442 CMP.

`Nc1ccc(Nc2cc(=O)[nH]c(=O)[nH]2)cc1` [GW-18C, 6-(p-aminoanilo)uracil]: at HeLa cell polymerase γ, the “effect on HeLa cell polymerase γ (in words)” value is “not effected” and the “CMP Incorporated, Pol γ” value is on record as 7,165 CMP. Moreover, in the assay on L1210 cells, the “growth of L1210 cells (in words)” value is reported as “not inhibited”. In addition, in the assay on EL-4 (400 μM, 1% DMSO), the “EL-4 proliferation (in words)” value is given as “inhibited”. The inhibition – broadly, the share of the control response that was lost under treatment – at 400 µM with EL-4 (Mus musculus, EL4, EL-4, at 72 hours, read-out: maximal growth inhibition) amounted to 80%. Also, on HeLa cell polymerase α [4], the “effect on HeLa cell polymerase α (in words)” value is “not effected” and the “CMP Incorporated, Pol α” value is 15,417 CMP. For the same compound, in assay [1], the “CMP 3H--dGMP inc.” value is 5,198 CMP and the “CMP Incorporated, TdT” value is 3,102 CMP. In the assay with HeLa cells [5], the “growth of HeLa cells (in words)” value was “not inhibited”. Moreover, at HeLa cell polymerase β, the “effect on HeLa cell polymerase β (in words)” value is on record as “not effected” and the “CMP Incorporated, Pol β” value is on record as 5,218 cpm.

As to `CCCCCNc1cc(=O)[nH]c(=O)[nH]1` [GW-18E, 6-(n-pentylamino)uracil], in assay [1], the “CMP 3H--dGMP inc.” value is reported as 11,674 CMP.

`O=c1cc(NCC2CCCCC2)[nH]c(=O)[nH]1` [GW-20B, 6-(cyclohexylmethylamino)uracil]: the “CMP 3H--dGMP inc.” value in [1] is on record as 11,296 CMP.

Regarding `CC(C)CCNc1cc(=O)[nH]c(=O)[nH]1` [GW-22A, 6-(iso-pentylamino)uracil], the “CMP 3H--dGMP inc.” value in assay [1] was 12,005 CMP.

In the case of `O=c1cc(Nc2ccc(O)cc2)[nH]c(=O)[nH]1` [GW-22E, 6-(p-hydroxyanilino)uracil], the “CMP 3H--dGMP inc.” value in assay [1] is on record as 21,760 CMP.

As to `O=c1cc(Nc2cccc(O)c2)[nH]c(=O)[nH]1` [GW-23A], in [1], the “TdT inhibition (in words)” value was “not inhibitory”.

On to `O=c1cc(Nc2cccc3ccccc23)[nH]c(=O)[nH]1` [GW-28A, 6-(d-naphthylamino)uracil], for which the “CMP 3H--dGMP inc.” value in assay [1] is recorded as 12,038 CMP.

On to `Cc1ccc(Nc2cc(=O)[nH]c(=O)[nH]2)cc1CO` [GW-28D], for which the “TdT inhibition (in words)” value in [1] is “not inhibitory”.
